Read-outs that look alike come from different tables or passages of the source.
Target: TPK enzyme (Homo sapiens (Human), UniProt Q9H3S4)
Assay: TPK enzyme activity test
Format: biochemical
Settings: for Emax: calculated with the effect of DMSO on TPK enzyme activity as 100%; for EC50: promoting effect on TPK enzyme activity

TPK enzyme, sequence (Q9H3S4 whole entry): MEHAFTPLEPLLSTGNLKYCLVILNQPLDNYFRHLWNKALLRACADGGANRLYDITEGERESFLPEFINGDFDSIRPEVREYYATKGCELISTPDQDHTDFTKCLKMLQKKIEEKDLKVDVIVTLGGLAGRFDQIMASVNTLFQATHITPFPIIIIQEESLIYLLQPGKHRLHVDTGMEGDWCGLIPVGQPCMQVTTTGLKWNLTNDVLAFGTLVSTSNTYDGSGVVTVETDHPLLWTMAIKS

SMILES | Emax (read-out: Emax) [%] | EC50 [µM] | Emax [%]
Cc1ccc2[nH]c3c(=O)n(CCC(=O)N4CCN(c5cccc(Cl)c5Cl)CC4)cnc3c2c1 [Compound 1, 3-(3-(4-(2,3-dichlorophenyl)piperazin-1-yl)-3-oxopropyl)-8-methyl-3,5-dihydro-4H-pyrimido[5,4-b]indol-4-one] | 159 | 0.11 | 
Cc1ccc2[nH]c3c(=O)n(CCC(=O)N4CCN(c5cc(Cl)ccc5Cl)CC4)cnc3c2c1 [Compound 2, 3-(3-(4-(2,5-dichlorophenyl)piperazin-1-yl)-3-oxopropyl)-8-methyl-3,5-dihydro-4H-pyrimido[5,4-b]indol-4-one] | 149 | 2.05 | 
Cc1ccc2c(c1)[nH]c1c(=O)n(CCC(=O)N3CCN(c4ccc(Cl)cc4Cl)CC3)cnc12 [Compound 3, 3-(3-(4-(2,4-dichlorophenyl)piperazin-1-yl)-3-oxopropyl)-7-methyl-3,5-dihydro-4H-pyrimido[5,4-b]indol-4-one] | 136 | 1.78 | 
Cc1ccc2[nH]c3c(=O)n(CCC(=O)N4CCN(c5ccccc5C(F)(F)F)CC4)cnc3c2c1 [Compound 4, 8-methyl-3-(3-oxo-3-(4-(2-(trifluoromethyl)phenyl)piperazin-1-yl)propyl)-3,5-dihydro-4H-pyrimido[5,4-b]indol-4-one] | 128 |  | 
O=C(CCn1cnc2c([nH]c3ccccc32)c1=O)N1CCN(c2cccc(C(F)(F)F)c2)CC1 [Compound 5, 3-(3-oxo-3-(4-(3-(trifluoromethyl)phenyl)piperazin-1-yl)propyl)-3,5-dihydro-4H-pyrimido[5,4-b]indol-4-one] | 139 | 2.29 | 
O=C(CCn1cnc2c([nH]c3ccc(C(F)(F)F)cc32)c1=O)N1CCN(c2cccc(C(F)(F)F)c2)CC1 [Compound 6, 3-(3-oxo-3-(4-(3-(trifluoromethyl)phenyl)piperazin-1-yl)propyl)-8-(trifluoromethyl)-3,5-dihydro-4H-pyrimido[5,4-b]indol-4-one] | 208 | 1.03 | 
Cc1ccc2[nH]c3c(=O)n(CCC(=O)N4CCN(c5ccc(Cl)cc5Cl)CC4)cnc3c2c1 [Compound 7, 3-(3-(4-(2,4-dichlorophenyl)piperazin-1-yl)-3-oxopropyl)-8-methyl-3,5-dihydro-4H-pyrimido[5,4-b]indol-4-one] | 148 | 2.32 | 
Cc1ccc2[nH]c3c(=O)n(CCC(=O)N4CCN(c5ccc(Cl)c(Cl)c5)CC4)cnc3c2c1 [Compound 9, 3-(3-(4-(3,4-dichlorophenyl)piperazin-1-yl)-3-oxopropyl)-8-methyl-3,5-dihydro-4H-pyrimido[5,4-b]indol-4-one] | 147 | 0.768 | 
Cc1ccc2[nH]c3c(=O)n(CCC(=O)N4CCN(c5ccc(C(F)(F)F)cc5)CC4)cnc3c2c1 [Compound 10, 8-methyl-3-(3-oxo-3-(4-(4-(trifluoromethyl)phenyl)piperazin-1-yl)propyl)-3,5-dihydro-4H-pyrimido[5,4-b]indol-4-one] | 157 | 1.15 | 
Cc1cccc2[nH]c3c(=O)n(CCC(=O)N4CCN(c5cccc(C(F)(F)F)c5)CC4)cnc3c12 [Compound 11, 9-methyl-3-(3-oxo-3-(4-(3-(trifluoromethyl)phenyl)piperazin-1-yl)propyl)-3,5-dihydro-4H-pyrimido[5,4-b]indol-4-one] | 180 | 1.07 | 
O=C(CCn1cnc2c([nH]c3ccc(Br)cc32)c1=O)N1CCN(c2cccc(C(F)(F)F)c2)CC1 [Compound 12, 8-bromo-3-(3-oxo-3-(4-(3-(trifluoromethyl)phenyl)piperazin-1-yl)propyl)-3,5-dihydro-4H-pyrimido[5,4-b]indol-4-one] | 205 |  | 
Cc1ccc2c(c1)[nH]c1c(=O)n(CCC(=O)N3CCN(c4cccc(Cl)c4Cl)CC3)cnc12 [Compound 13, 3-(3-(4-(2,3-dichlorophenyl)piperazin-1-yl)-3-oxopropyl)-7-methyl-3,5-dihydro-4H-pyrimido[5,4-b]indol-4-one] | 124 |  | 
Cc1ccc2c(c1)[nH]c1c(=O)n(CCC(=O)N3CCN(c4cc(Cl)ccc4Cl)CC3)cnc12 [Compound 14, 3-(3-(4-(2,5-dichlorophenyl)piperazin-1-yl)-3-oxopropyl)-7-methyl-3,5-dihydro-4H-pyrimido[5,4-b]indol-4-one] | 152 | 2.44 | 
Cc1ccc2[nH]c3c(=O)n(CCCC(=O)N4CCN(c5cccc(Cl)c5Cl)CC4)cnc3c2c1 [Compound 15, 3-(4-(4-(2,3-dichlorophenyl)piperazin-1-yl)-4-oxobutyl)-8-methyl-3,5-dihydro-4H-pyrimido[5,4-b]indol-4-one] | 145 | 0.463 | 
Cc1ccc2[nH]c3c(=O)n(CCC(=O)N4CCN(c5cc(C(F)(F)F)cc(C(F)(F)F)c5)CC4)cnc3c2c1 [Compound 16, 3-(3-(4-(3,5-bis(trifluoromethyl)phenyl)piperazin-1-yl)-3-oxopropyl)-8-methyl-3,5-dihydro-4H-pyrimido[5,4-b]indol-4-one] | 144 | 0.36 | 
Cc1ccc2[nH]c3c(=O)n(CCC(=O)N4CCN(c5cccc(Br)c5)CC4)cnc3c2c1 [Compound 18, 3-(3-(4-(3-bromophenyl)piperazin-1-yl)-3-oxopropyl)-8-methyl-3,5-dihydro-4H-pyrimido[5,4-b]indol-4-one] | 159 |  | 
Cc1ccc2c(c1)[nH]c1c(=O)n(CCC(=O)N3CCN(c4ccc(Cl)c(Cl)c4)CC3)cnc12 [Compound 19, 3-(3-(4-(3,4-dichlorophenyl)piperazin-1-yl)-3-oxopropyl)-7-methyl-3,5-dihydro-4H-pyrimido[5,4-b]indol-4-one] | 145 | 2 | 
Cc1ccc2c(c1)[nH]c1c(=O)n(CCC(=O)N3CCN(c4c(Cl)cccc4Cl)CC3)cnc12 [Compound 20, 3-(3-(4-(2,6-dichlorophenyl)piperazin-1-yl)-3-oxopropyl)-7-methyl-3,5-dihydro-4H-pyrimido[5,4-b]indol-4-one] | 121 |  | 
Cc1ccc2c(c1)[nH]c1c(=O)n(CCC(=O)N3CCN(c4cccc(C(F)(F)F)c4)CC3)cnc12 [Compound 22, 7-methyl-3-(3-oxo-3-(4-(3-(trifluoromethyl)phenyl)piperazin-1-yl)propyl)-3,5-dihydro-4H-pyrimido[5,4-b]indol-4-one] | 207 |  | 
Cc1cccc2c1[nH]c1c(=O)n(CCC(=O)N3CCN(c4cccc(C(F)(F)F)c4)CC3)cnc12 [Compound 23, 6-methyl-3-(3-oxo-3-(4-(3-(trifluoromethyl)phenyl)piperazin-1-yl)propyl)-3,5-dihydro-4H-pyrimido[5,4-b]indol-4-one] | 121 |  | 

SMILES | Emax (read-out: Emax) [%] | EC50 [µM] | Emax [%]
Cc1ccc2[nH]c3c(=O)n(CCC(=O)N4CCN(c5cccc(N)c5)CC4)cnc3c2c1 [Compound 26, 3-(3-(4-(3-aminophenyl)piperazin-1-yl)-3-oxopropyl)-8-methyl-3,5-dihydro-4H-pyrimido[5,4-b]indol-4-one] | 166 | 2.62 | 
Cc1ccc2[nH]c3c(=O)n(CCC(=O)N4CCN(c5cccc(C(=O)O)c5)CC4)cnc3c2c1 [Compound 27, 3-(4-(3-(8-methyl-4-oxo-4,5-dihydro-3H-pyrimido[5,4-b]indol-3-yl)propanoyl)piperazin-1-yl)benzoic Acid] | 122 |  | 
Cc1ccc2[nH]c3c(=O)n(CCC(=O)N4CCN(c5cccc(C(N)=O)c5)CC4)cnc3c2c1 [Compound 28, 3-(4-(3-(8-methyl-4-oxo-4,5-dihydro-3H-pyrimido[5,4-b]indol-3-yl)propanoyl)piperazin-1-yl)benzamide] | 124 |  | 
Cc1ccc(N2CCN(C(=O)CCn3cnc4c([nH]c5ccc(C)cc54)c3=O)CC2)c(C)c1 [Compound 31] | 151 | 1.21 | 
Cc1ccc2[nH]c3c(=O)n(CCC(=O)N4CCN(c5ccccc5)CC4)cnc3c2c1 [Compound 32] | 123 |  | 
Cc1ccc2[nH]c3c(=O)n(CCC(=O)N4CCN(c5ccc(F)cc5)CC4)cnc3c2c1 [Compound 33] | 123 |  | 
Cc1ccc(C)c(N2CCN(C(=O)CCn3cnc4c([nH]c5ccc(C)cc54)c3=O)CC2)c1 [Compound 34] | 167 | 1.37 | 
CC(=O)c1ccc(N2CCN(C(=O)CCn3cnc4c([nH]c5ccc(C)cc54)c3=O)CC2)cc1 [Compound 35] | 126 |  | 
Cc1cccc(N2CCN(C(=O)CCn3cnc4c([nH]c5ccc(C)cc54)c3=O)CC2)c1 [Compound 38] | 145 |  | 
O=C(CCn1cnc2c([nH]c3ccc(F)cc32)c1=O)N1CCN(c2cccc(C(F)(F)F)c2)CC1 [Compound 39] | 139 |  | 
Cc1ccc2[nH]c3c(=O)n(CCC(=O)N4CCN(c5ccccc5F)CC4)cnc3c2c1 [Compound 40] | 125 |  | 
Cc1ccc2[nH]c3c(=O)n(CC(=O)N4CCN(c5cccc(C(F)(F)F)c5)CC4)cnc3c2c1 [Compound 41] | 141 |  | 
Cc1ccc2[nH]c3c(=O)n(CCC(=O)N4CCN(c5cc(Cl)ccc5C)CC4)cnc3c2c1 [Compound 42] | 156 | 3.96 | 
COc1cccc(N2CCN(C(=O)CCn3cnc4c([nH]c5ccc(C)cc54)c3=O)CC2)c1 [Compound 43] | 137 |  | 
Cc1ccc2[nH]c3c(=O)n(CCC(=O)N4CCN(c5cccc(C)c5C)CC4)cnc3c2c1 [Compound 44] | 152 | 3.3 | 
COc1cccc(N2CCN(C(=O)Cn3cnc4c([nH]c5ccc(C)cc54)c3=O)CC2)c1 [Compound 45] | 158 | 1.22 | 
Cc1ccc2[nH]c3c(=O)n(CCC(=O)N4CCN(c5ccc(F)cc5)CC4)cnc3c2c1 [Compound 46] |  |  | 122.50
COc1ccccc1N1CCN(C(=O)CCn2cnc3c([nH]c4ccc(C)cc43)c2=O)CC1 [Compound 47] | 135 |  | 
Cc1ccc2[nH]c3c(=O)n(CCCN4CCN(c5cccc(C(F)(F)F)c5)CC4)cnc3c2c1 [Compound 49, 8-methyl-3-(3-(4-(3-(trifluoromethyl)phenyl)piperazin-1-yl)propyl)-3,5-dihydro-4H-pyrimido[5,4-b]indol-4-one] | 136 |  | 

— patent publication US20250388584A1, “TPK AGONIST AND METHOD FOR TREATING NEURODEGENERATIVE DISEASES USING SAME” (SHANGHAI RAISING PHARMACEUTICAL CO., LTD., priority 2022, published 2025)
